“And” between values parts separate entries of the source, which are not always exact repeats. Equal values may be shown once.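 Interpolation was linear, between the two tested concentrations surrounding the appropriate level; five concentrations were tested over 48 hours in 96-well plates. Here, GI50 denotes the concentration required for 50% inhibition of growth. The concentration for full growth arrest is given as TGI.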
What was measured:
Assay in all cases: NCI-60 cell line screen, 48 h
[1] = test system: ACHN renal
[2] = test system: HOP-92 NSCLC
[3] = test system: MALME-3M melanoma
[4] = test system: MDA-MB-231 breast
[5] = test system: NCI-H226 lung
[6] = test system: NCI/ADR-RES ovarian
[7] = test system: PC-3 prostate
[8] = test system: RXF 393 renal
[9] = test system: SK-MEL-28 melanoma
[10] = test system: SK-MEL-5 melanoma

Row | Structure (SMILES) | TGI [1] | TGI [2] [µM] | TGI [3] | TGI [4] [µM] | TGI [5] [µM] | TGI [6] | TGI [7] [µM] | TGI [8] [µM] | TGI [9] | TGI [10] | GI50 [5] [µM] | GI50 [1] [µM] | GI50 [2] [µM] | GI50 [3] [µM] | GI50 [4] [µM] | GI50 [6] [µM] | GI50 [7] [µM] | GI50 [8] [µM] | GI50 [9] [µM] | GI50 [10] [µM]
1 | Oc1c(Cl)c(Cl)c(O)c(-c2cnc(-c3ncc(-c4c(O)c(Cl)c(Cl)c(O)c4Cl)s3)s2)c1Cl | 51.5 µM | > 100 | 71.3 µM | 42.8 | 14 | 71.6 µM | > 100 | 43.8 | 75.6 µM | 30.1 µM | – | – | – | – | – | – | – | – | – | –
2 | CC(=O)OC1(C)CC(C)C(=O)C(C(O)CC2CC(=O)NC(=O)C2)C1 (stereo unspecified) | 0.131 µM and 0.107 µM | 0.0121 | 0.375 µM and 0.753 µM | 0.196 | 0.275 | 0.744 µM and 0.341 µM | 0.0852 | 0.0899 | 0.134 µM and 0.688 µM | 0.147 µM and 0.023 µM | 0.0108 | – | – | – | – | – | – | – | – | –
3 | O=C(OCC1CC(C2(O)CCCCC2)C(=O)O1)c1ccccc1 (stereo unspecified) | > 100 µM | > 100 | > 100 µM | > 100 | > 100 | > 100 µM | > 100 | > 100 | > 100 µM | > 100 µM | – | – | – | – | – | – | – | – | – | –
4 | O=C(NCCCN1CCN(CCCNC(=O)c2cc(-c3ccccc3)nc3ccccc23)CC1)c1cc(-c2ccccc2)nc2ccccc12 | 28.8 µM | 28.5 | 3.21 µM | > 62.6 | > 65.3 | > 72.3 µM | 26 | > 60 | 3.99 µM | 3.98 µM | – | – | – | – | – | – | – | – | – | –
5 | CC(=O)OC1CC2C(=O)CC1(C)C2(C)C (stereo unspecified) | > 100 µM | > 100 | > 100 µM | > 100 | > 100 | > 100 µM | > 100 | > 100 | > 100 µM | > 100 µM | – | – | – | – | – | – | – | – | – | –
6 | CCOC(=O)Cc1ccc(Nc2nc3cc(F)c(F)cc3nc2C(=O)OCC)cc1 | 33.5 µM | 54.6 | > 100 µM | 9.08 | > 100 | > 100 µM | > 100 | > 100 | > 100 µM | > 100 µM | – | – | – | – | – | – | – | – | – | –
7 | CCn1c(=O)c2c3ccc(O)cc3[nH]c2c2ccc(O)cc21 | > 100 µM | > 100 | > 100 µM | > 100 | > 100 | > 100 µM | > 100 | > 100 | > 100 µM | > 100 µM | – | – | – | – | – | – | – | – | – | –
8 | CC1=C(C(=O)NNC(=O)c2ccccc2O)CC(C(=O)NNC(=O)c2ccccc2O)=C(C)N1 | > 88.7 µM | > 100 | > 100 µM | > 27.9 | > 41.7 | > 51.3 µM | > 100 | > 100 | > 100 µM | > 100 µM | – | – | – | – | – | – | – | – | – | –
9 | Cc1c2c(n3c(nc4ccccc43)c1C#N)NCC2 | > 10 µM | > 10 | > 10 µM | > 10 | > 10 | > 10 µM | > 10 | > 10 | > 10 µM | > 10 µM | – | – | – | – | – | – | – | – | – | –
10 | CCOC(=O)C12CCC(c3c(C)cccc3C)(O1)C(C(=O)OC)=C2C(=O)OC (stereo unspecified) | > 10 µM | > 10 | 6.4 µM | 9.93 | > 10 | > 10 µM | > 10 | > 10 | > 10 µM | 5.37 µM | – | – | – | – | – | – | – | – | – | –
11 | O=C(Cn1c2ccc(Br)cc2c2nc3ccccc3nc21)N1CCOCC1 | > 100 µM | 83.3 | > 100 µM | > 100 | > 100 | > 100 µM | > 100 | 98.9 | > 100 µM | > 100 µM | – | – | – | – | – | – | – | – | – | –
12 | CCOC(=O)CN1C(=O)c2c(NC(=O)C(=O)O)cccc2S1(=O)=O | > 100 µM | > 100 | > 100 µM | > 100 | > 100 | > 100 µM | > 100 | > 100 | > 100 µM | > 100 µM | – | – | – | – | – | – | – | – | – | –
13 | CC(=O)c1sc2c(c1OC(=O)c1ccccc1)c(=O)n(-c1ccccc1)c(=S)n2-c1ccccc1 | 12.6 µM | 5.94 | 5.92 µM | 22.7 | 8.33 | 28.7 µM | 14.9 | 7.21 | 30.4 µM | 18.4 µM | – | – | – | – | – | – | – | – | – | –
14 | O=C(/C=C/c1ccc(O)c(O)c1)c1ccc(O)cc1O | 45.3 µM | 33.3 | 28.7 µM | 50.8 | 37.6 | > 84.1 µM | 52.6 | 25.8 | 30.5 µM | 26.3 µM | – | – | – | – | – | – | – | – | – | –
15 | CC(C)(C)c1cc(OCc2n[nH]c(=S)n2N)c(Cl)cc1OCc1n[nH]c(=S)n1N | > 100 µM | > 100 | > 100 µM | > 100 | > 100 | > 100 µM | > 100 | > 100 | > 100 µM | 54.6 µM | – | – | – | – | – | – | – | – | – | –
16 | O=C(N/N=C\c1ccc(Cl)cc1)Nc1cccc2ccccc12 | 4.92 µM | 21.2 | > 24.4 µM | > 59.1 | > 30 | > 100 µM | > 100 | 9.99 | > 100 µM | > 37.4 µM | – | – | – | – | – | – | – | – | – | –

Row | Structure (SMILES) | TGI [1] | TGI [2] [µM] | TGI [3] | TGI [4] [µM] | TGI [5] [µM] | TGI [6] | TGI [7] [µM] | TGI [8] [µM] | TGI [9] | TGI [10] | GI50 [5] [µM] | GI50 [1] [µM] | GI50 [2] [µM] | GI50 [3] [µM] | GI50 [4] [µM] | GI50 [6] [µM] | GI50 [7] [µM] | GI50 [8] [µM] | GI50 [9] [µM] | GI50 [10] [µM]
17 | Cc1ccc2nc(-c3nccn3C)cc(C(=O)NC(C)CN(C)C)c2c1 (stereo unspecified) | > 100 µM | > 100 | > 100 µM | > 100 | > 100 | > 100 µM | > 100 | > 100 | > 100 µM | > 100 µM | – | – | – | – | – | – | – | – | – | –
18 | Clc1ccc2c(c1)CC1C[N+]3=C(CCCCC3)C1=C2 (stereo unspecified) | > 100 µM | 95.2 | > 100 µM | > 100 | > 100 | > 100 µM | > 100 | > 100 | > 100 µM | > 100 µM | – | – | – | – | – | – | – | – | – | –
19 | Oc1ccccc1CNCc1ccccc1O | > 100 µM | > 100 | > 100 µM | > 100 | > 100 | > 100 µM | > 100 | > 100 | > 100 µM | > 100 µM | – | – | – | – | – | – | – | – | – | –
20 | O=C(Nc1ccccc1)c1cc2cc(CCl)ccc2oc1=O | 31.1 µM | > 100 | > 100 µM | > 100 | > 100 | > 100 µM | > 100 | > 100 | > 100 µM | > 100 µM | – | – | – | – | – | – | – | – | – | –
21 | Cc1ccc(C(CCO)CCO)nc1 | > 100 µM | > 100 | > 100 µM | > 100 | > 100 | > 100 µM | > 100 | > 100 | > 100 µM | > 100 µM | – | – | – | – | – | – | – | – | – | –
22 | O=C1Nc2n[nH]c(=S)n2NC12c1ccccc1-c1ccccc12 | > 100 µM | > 100 | > 100 µM | > 100 | > 100 | > 100 µM | > 100 | > 100 | > 100 µM | > 100 µM | – | – | – | – | – | – | – | – | – | –
23 | Nc1n[nH]c(N)n1 | > 10000 µM | 9580 | > 10000 µM | > 10000 | > 10000 | > 10000 µM | > 10000 | > 10000 | > 10000 µM | > 10000 µM | – | – | – | – | – | – | – | – | – | –
24 | CCCCCCc1cc2cc(-c3cn4ccccc4n3)c(=O)oc2cc1O | 38.1 µM | 32.6 | 4.74 µM | 9.7 | 34.5 | 21.4 µM | 32.7 | 15.1 | 24.7 µM | 22.1 µM | – | – | – | – | – | – | – | – | – | –
25 | COc1cc(C2SCC(=O)N2c2ccc(Cl)cc2)cc(OC)c1OC (stereo unspecified) | > 100 µM | > 100 | > 100 µM | > 100 | 98.4 | > 100 µM | > 100 | 71.2 | > 100 µM | > 100 µM | – | – | – | – | – | – | – | – | – | –
26 | CC1=NC(=O)CNN1C1=NNC2(C(=O)N1)c1ccccc1-c1ccccc12 | > 100 µM | > 100 | > 100 µM | > 100 | > 100 | > 100 µM | > 100 | > 100 | > 100 µM | > 100 µM | – | – | – | – | – | – | – | – | – | –
27 | C[C@@]12C[C@@H](c3ccccc3O1)N1CCCSC1=N2 | > 100 µM | > 100 | > 100 µM | > 100 | > 100 | > 100 µM | > 100 | > 100 | > 100 µM | > 100 µM | – | – | – | – | – | – | – | – | – | –
28 | Cc1cc(S(=O)(=O)Nc2nnc3c(Cl)cc(C(F)(F)F)cn23)c(S)cc1Cl | > 100 µM | > 100 | > 100 µM | > 100 | > 100 | > 100 µM | > 100 | > 100 | > 100 µM | > 80.6 µM | – | – | – | – | – | – | – | – | – | –
29 | Cn1cc(-c2csc(-c3cn(CCCN4CCCCC4)c4ccc(Br)cc34)n2)c2cccnc21 | 3 µM | 3.63 | 3.16 µM | 3.21 | 4.84 | 3.73 µM | 3.22 | 3.19 | 3.2 µM | 3.41 µM | 2.07 | 1.65 | 1.79 | 1.58 | 1.72 | 1.92 | 1.77 | 1.64 | 1.71 | 1.86
30 | COc1c(N2CCCCC2)c2c(=O)c3ccccc3oc2c2c3ccccc3n(C)c12 | > 100 µM | > 100 | > 100 µM | > 100 | > 100 | > 100 µM | > 100 | > 100 | > 100 µM | > 100 µM | – | – | – | – | – | – | – | – | – | –
31 | S=C1C(CCCOCc2ccccc2)C2CCCC23CC2(CCN13)OCCS2 (stereo unspecified) | > 10 µM | > 10 | > 10 µM | > 10 | > 10 | > 10 µM | > 10 | > 10 | > 10 µM | > 10 µM | – | – | – | – | – | – | – | – | – | –
